Measured values: patent US20140147410A1, “MICROBICIDE COMBINATIONS CONTAINING SILVER” (priority 2011, published 2014)

How the values were obtained:
Assay type in all cases: cell-based
[1] = test system: Aspergillus niger ATCC# 16404; test: HRMIC synergy test, mold; conditions: A. niger, biocide alone
Method: (§1) The combinations were evaluated for synergy by determining the synergy index (S.I.) of the combination. The Synergy index calculated is based on minimum inhibitory concentrations (MIC) of two biocides (A and B) alone and in combinations. The lower the S.I. value, the better the synergy. High Resolution Minimum Inhibitory Concentration (HRMIC) method was performed to determine the potential for synergy of the combinations. The tests organisms were gram negative bacteria (Pseudomonas aeruginosa), Gram positive bacteria (Staphylococcus aureus), yeast (Candida albicans) and mold (Aspergillus niger). Contact time for the bacteria was 24 and 48 hours, yeast was 48 and 72 hrs, 3 and 7 days for mold. The test was carried out in 96well microtiter plates. […] Ca/CA+Cb/CB=Synergy Index(“SI”) • CA=concentration of compound A in ppm, acting alone, which produced an end point (MIC of Compound A). • Ca=concentration of compound A in ppm, in the mixture, which produced an end point. • CB=concentration of compound B in ppm, acting alone, which produced an end point (MIC of Compound B). • Cb=concentration of compound B in ppm, in the mixture, which produced an end point. When the sum of Ca/CA and Cb/CB is greater than one, antagonism is indicated. […] [table] [table]

[2] = test system: Candida albicans ATCC#10203; test: HRMIC synergy test, yeast; conditions: C. albicans, biocide alone
Method: as §1

[3] = test system: Pseudomonas aeruginosa ATCC # 15442; test: HRMIC synergy test, gram negative bacteria; conditions: Ps. aeruginosa, contact time 24 hrs, biocide alone
Method: as §1

[4] = test system: Staphylococcus aureus ATCC# 6538; test: HRMIC synergy test, Gram positive bacteria; conditions: S. aureus, biocide alone
Method: as §1

## Cc1ccc(S(=O)(=O)C(I)I)cc1 [DIMTS, diiodomethyl-p-tolylsulfone]
[1]; contact time 3rd day
  MIC alone (CA / CB): 0.3 ppm AI
[1]; contact time 7th day
  MIC alone (CA / CB): 0.5 ppm AI
[2]; contact time 48 hrs
  MIC alone (CA / CB): 20 ppm AI
[2]; contact time 72 hrs
  MIC alone (CA / CB): 30 ppm AI
[3]
  MIC alone (CA / CB): >1000 ppm AI
[4]; contact time 24 hrs
  MIC alone (CA / CB): 30 ppm AI
[4]; contact time 48 hrs
  MIC alone (CA / CB): 400 ppm AI
